Results taken from patent US12435038B2 (KUNMING SINOWAY NATURAL PHARMACEUTICALS CO., LTD., priority 2019, dated 2025).

Experiments:
[1] = cited from earlier work
[2] = Powder properties of amlodipine mesylate monohydrate crystals (particle size distribution, carr index, angle of repose, bulk density); type: physicochemical; conditions: API crystals
Text: The Carr index and angle of repose are indications of the flowability of a powdery material. To a certain extent, the Carr index is an indication of the compressibility of a powdery material. Carr index=(tap density-bulk density)/tap density*100%.
The angle of repose (α) refers to the maximum angle formed between the free inclined plane and the horizontal plane in a powder piled layer. The smaller the angle of repose (α) is, the better the flowability is. It is generally believed that the powder can flow freely if the a is less than 30°, and the flowability of the power is acceptable if the a is between 30° and 40°, while the power may have poor flowability if the a is greater than 40°.
The particle size of crystals can be measured by a Malvern Lazer Particle Analyzer which is a dry method. The particle size is related to the fluidity of a powder, and generally the larger the particle size is and the more concentrated the particle distribution is, the better the fluidity is. During the crystallization process, an average particle size (D50) of less than 15 μm may lead to difficulty in filtration and drying and easy to carry and absorb more impurities. Furthermore, the uniformity of particle size distribution can also have an impact on the properties of APIs.
(§1) Determination of other parameters of API or tablets of amlodipine mesylate monohydrate regarding quality such as water content, angle of repose, carr index, particle size, bulk density, and the like, is conduct with conventional methods well known to those skilled in the art.

[3] = Accelerated test of the API (sealed in aluminum-plastic composite film bags, 40° C., 75% RH); type: physicochemical; conditions: mesylate monohydrate
Text: as §1

Molecule | particle size distribution D10 [2] [μm] | particle size distribution D50 [2] [μm] | particle size distribution D90 [2] [μm] | Bulk density [2] [g/mL] | Carr index [2] [%] | angle of repose [2] [°] | fluidity (words, from carr index and angle of repose) [2] | Average particle size ([3]; 0 month) [μm] | Bulk density ([3]; 0 month) [g/mL] | Carr index ([3]; 0 month) [%] | Character ([3]; 0 month) | Content ([3]; 0 month) [%] | Related substance ([3]; 0 month) [%] | Water content ([3]; 0 month) [%] | Average particle size ([3]; 3 months) [μm] | Bulk density ([3]; 3 months) [g/mL] | Carr index ([3]; 3 months) [%] | Content ([3]; 3 months) [%] | Related substance ([3]; 3 months) [%] | Water content ([3]; 3 months) [%] | further results
CCOC(=O)C1=C(COCCN)NC(C)=C(C(=O)OC)C1c1ccccc1Cl (stereo not shown) [Amlodipine free base, Amlodipine] | – | – | – | – | – | – | – | – | – | – | – | – | – | – | – | – | – | – | – | – | water solubility [1]: poor water solubility
amlodipine mesylate monohydrate [Experimental Example 2] | 32 | 68 | 117 | – | – | – | – | – | – | – | – | – | – | – | – | – | – | – | – | – | –
amlodipine mesylate monohydrate [Experimental Example 3] | 34 | 69 | 120 | – | – | – | – | – | – | – | – | – | – | – | – | – | – | – | – | – | –
amlodipine mesylate monohydrate [Experimental Example 1] | 43 | 92 | 151 | – | – | – | – | – | – | – | – | – | – | – | – | – | – | – | – | – | –
amlodipine mesylate monohydrate [Example 3] | 32.9 | 70.1 | 124 | 0.30 | 24 | 33 | good fluidity | 70.1 | 0.30 | 24 | White solid | 99.93 | 0.07 | 3.50 | 69.5 | 0.31 | 23 | 99.82 | 0.08 | 3.48 | Character ([3]; 3 months): White solid; Average particle size ([3]; 6 months): 71.4 μm; Bulk density ([3]; 6 months): 0.32 g/mL; Carr index ([3]; 6 months): 25%; Character ([3]; 6 months): White solid; Content ([3]; 6 months): 99.71%; Related substance ([3]; 6 months): 0.10%; Water content ([3]; 6 months): 3.49%
amlodipine mesylate monohydrate | – | – | – | – | – | – | – | – | – | – | – | – | – | – | – | – | – | – | – | – | water solubility [1]: easily soluble in water; solubility relative to that of amlodipine besylate ([1]; in water): more than 10 time
amlodipine mesylate monohydrate [Example 1] | 33.9 | 70.2 | 121 | 0.32 | 23 | 29 | good fluidity | 70.2 | 0.32 | 23 | White solid | 99.92 | 0.07 | 3.51 | 70.6 | 0.31 | 23 | 99.78 | 0.07 | 3.49 | Character ([3]; 3 months): White solid; Average particle size ([3]; 6 months): 69.5 μm; Bulk density ([3]; 6 months): 0.33 g/mL; Carr index ([3]; 6 months): 24%; Character ([3]; 6 months): White solid; Content ([3]; 6 months): 99.71%; Related substance ([3]; 6 months): 0.08%; Water content ([3]; 6 months): 3.50%
amlodipine mesylate monohydrate [Example 2] | 34.8 | 72.1 | 126 | 0.33 | 23 | 31 | good fluidity | 72.1 | 0.33 | 23 | White solid | 99.95 | 0.06 | 3.51 | 71.8 | 0.32 | 24 | 99.81 | 0.07 | 3.52 | Character ([3]; 3 months): White solid; Average particle size ([3]; 6 months): 72.4 μm; Bulk density ([3]; 6 months): 0.32 g/mL; Carr index ([3]; 6 months): 24%; Character ([3]; 6 months): White solid; Content ([3]; 6 months): 99.73%; Related substance ([3]; 6 months): 0.08%; Water content ([3]; 6 months): 3.49%
amlodipine mesylate monohydrate [Comparative Example 2, reference compound] | 1.62 | 6.22 | 14.1 | 0.26 | 42 | 45 | poor fluidity | 6.22 | 0.26 | 42 | White like | 99.82 | 0.11 | 3.57 | 5.89 | 0.27 | 41 | 99.71 | 0.18 | 3.52 | Character ([3]; 3 months): Light yellow; Average particle size ([3]; 6 months): 6.74 μm; Bulk density ([3]; 6 months): 0.25 g/mL; Carr index ([3]; 6 months): 44%; Character ([3]; 6 months): Yellow solid; Content ([3]; 6 months): 99.62%; Related substance ([3]; 6 months): 0.26%; Water content ([3]; 6 months): 3.53%
amlodipine mesylate monohydrate [Comparative Example 1, reference compound] | 1.73 | 6.70 | 16.4 | 0.22 | 41 | 46 | poor fluidity | 6.70 | 0.22 | 41 | White like | 99.89 | 0.12 | 3.49 | 5.96 | 0.25 | 42 | 99.81 | 0.18 | 3.48 | Average particle size ([3]; 6 months): 6.93 μm; Bulk density ([3]; 6 months): 0.26 g/mL; Carr index ([3]; 6 months): 43%; Character ([3]; 6 months): Yellow; Content ([3]; 6 months): 99.71%; Related substance ([3]; 6 months): 0.23%; Water content ([3]; 6 months): 3.51%
